# Biological target: T1, CCR-3 (Homo sapiens, UniProt P51677)
# T1 sequence (P51677 1-355): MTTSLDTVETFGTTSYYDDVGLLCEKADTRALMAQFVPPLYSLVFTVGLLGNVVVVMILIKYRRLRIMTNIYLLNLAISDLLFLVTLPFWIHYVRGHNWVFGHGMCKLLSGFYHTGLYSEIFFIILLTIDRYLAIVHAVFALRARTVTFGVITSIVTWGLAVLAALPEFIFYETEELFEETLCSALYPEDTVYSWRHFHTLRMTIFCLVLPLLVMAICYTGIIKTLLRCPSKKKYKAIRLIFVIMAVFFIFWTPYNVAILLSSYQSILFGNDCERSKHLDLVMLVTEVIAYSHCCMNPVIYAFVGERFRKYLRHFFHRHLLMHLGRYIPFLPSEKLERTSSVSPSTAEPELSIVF
# Assay: Inhibition of eotaxin-induced chemotaxis of CCR-3 transfectant cells (CCR3/U937)
# Format: cell-based
# Set-up: expressed in transfected cells; host or cells: U937
# Details: eotaxin 1×10^−9 M; for Chemotaxis Assay 10 μM (inhibition %): compound 10 μM; for inhibition at 10 µM: U-937, compound 10 μM
# Protocol: The inhibitory activity of the compounds against eotaxin-induced chemotaxis was determined by measuring the inhibition of migration of CCR-3 transfectant cells (CCR3/U937), using a minor modification of the method described by Ohashi, H. et al., Int Arch Allergy Immunol. (1999) 118, 44-50. CCR-3 transfectant cells were grown in PRMI1640 medium containing 10% fetal calf serum (FCS) and Geneticin 418 (0.8 mg/ml). For the assay, CCR-3 transfectant cells were isolated and resuspended at 1×10^7 cells/ml in assay medium (RPMI 1640 medium containing 0.1% bovine serum albumin (BSA)). The chemotaxis assay was performed in a 24-well culture plate. Human eotaxin suspended in assay medium was added to the wells at 1×10^−9 M along with test compounds at various concentrations. For a positive control, eotaxin was added to the wells without a test compound, and for a negative control, neither eotaxin nor a test compound was added to the walls. Chemotaxicell (Kurabo Co., Ltd.) having 5 micrometers pore size were inserted into each well and 100 micro liters of CCR-3 transfectant cells suspension were added to the top chamber. The plates were incubated at 37° C. for 1 hour. After incubation, migrated cells in lower wells were diluted and counted by particle size distribution analyzer (CDP-500, Sysmex Co., Ltd.)
smiles,measurement,setting,value
COC(=O)CCCN(CCNC(=O)Nc1ccc(Br)cc1)C1CCCc2ccccc21 (centres unmarked) [Compound 50],Chemotaxis Assay 10 μM (inhibition %),Table 3a,54%
COC(=O)CCCN(CCCNC(=O)Nc1ccc(Br)cc1)CCc1ccc(OC)c(OC)c1 [Compound 43],Chemotaxis Assay 10 μM (inhibition %),Table 3a,50%
"O=C(O)CCCN(CCCNC(=S)Nc1ccc(Cl)cc1)C1CCCc2ccccc21 (centres unmarked) [Compound 164, 4-[[3-(4-chlorophenylthioureido)propyl](1,2,3,4-tetrahydro-1-naphthyl)amino]butanoic acid]",inhibition at 10 µM,Table 3a,100%
"COC(=O)CCCN(CC[C@H](NC(=O)Nc1ccc(Br)cc1)C(=O)NCc1ccccc1)C1CCCc2ccccc21 (stereo partly drawn) [Compound 283, Methyl 4-[[(3S)-3-(4-bromophenylureido)-3-(benzylcarbamoyl)propyl](1,2,3,4-tetrahydro-1-naphthyl)amino]butylate]",Chemotaxis Assay 10 μM (inhibition %),Table 3a,100%
"O=C(O)CCCN(CCCNC(=S)Nc1ccc(Br)cc1)[C@@H]1CCCc2ccccc21 [Compound 290, 4-[[3(4-Bromophenylthioureido)propyl][(1R)-1,2,3,4-tetrahydro-1-naphthyl]amino]butanoic acid]",inhibition at 10 µM,Table 3a,100%
COC(=O)CCCN(CCCNC(=S)Nc1cccc(Br)c1)C1CCCc2ccccc21 (centres unmarked) [Compound 253],Chemotaxis Assay 10 μM (inhibition %),Table 3a,74%
O=C(O)CCCN(CCNC(=O)Nc1ccc(Br)cc1)C1CCCc2ccccc21 (centres unmarked) [Compound 81],Chemotaxis Assay 10 μM (inhibition %),Table 3a,58%
"CC(C)(C)OC(=O)[C@H](CCN(CCCC(=O)O)C1CCCc2ccccc21)NC(=O)Nc1ccc(Br)cc1 (stereo partly drawn) [Compound 166, 4[[(3S)-3-(4-bromophenylureido)-3-(tert-butoxycarbonyl)propyl](1,2,3,4-tetrahydro-1-naphthyl)amino]butanoic acid]",Chemotaxis Assay 10 μM (inhibition %),Table 3a,100%
CCCCOC(=O)c1ccc(NC(=O)NCCCN(CCCC(=O)O)C2CCCc3ccccc32)cc1 (centres unmarked) [Compound 237],Chemotaxis Assay 10 μM (inhibition %),Table 3a,100%
COC(=O)CCCN(CCCNC(=O)Nc1ccc(Br)cc1)Cc1cccs1 [Compound 39],Chemotaxis Assay 10 μM (inhibition %),Table 3a,78%
Cc1ccc(NC(=S)NCCCN(CCCC(=O)O)C2CCCc3ccccc32)cc1 (centres unmarked) [Compound 250],Chemotaxis Assay 10 μM (inhibition %),Table 3a,99%
O=C(O)CCCN(CCCNC(=S)Nc1ccc(Br)cc1)C1CCCc2ccccc21 (centres unmarked) [Compound 246],Chemotaxis Assay 10 μM (inhibition %),Table 3a,100%
COC(=O)CCCN(CCCNC(=S)Nc1ccc(Br)cc1)C1CCCc2ccccc21 (centres unmarked) [Compound 252],Chemotaxis Assay 10 μM (inhibition %),Table 3a,100%
O=C(O)CCCN(CCCNC(=O)Nc1cc(Cl)nc(Cl)c1)C1CCCc2ccccc21 (centres unmarked) [Compound 279],Chemotaxis Assay 10 μM (inhibition %),Table 3a,96%
"O=C(O)CCCN(CCCNC(=S)Nc1ccc(Br)cc1)[C@@H]1CCc2ccccc21 [Compound 288, 4-[[3(4-Bromophenylthioureido)propyl][(1R)-1-indanyl]amino]butanoic acid]",inhibition at 10 µM,Table 3a,100%
CC[N+](CC)(CCCNC(=S)Nc1ccc(Br)cc1)CCc1ccc(Cl)cc1.[I-] [Compound 335],Chemotaxis Assay 10 μM (inhibition %),Table 3c,100%
"CC(C)(C)OC(=O)[C@H](CCN(CCCC(=O)O)C1CCCc2ccccc21)NC(=O)Nc1ccc(Br)cc1 (stereo partly drawn) [Compound 165, 4[[(3S)-3-(4-bromophenylureido)-3-(tert-butoxycarbonyl)propyl](1,2,3,4-tetrahydro-1-naphthyl)amino]butanoic acid]",inhibition at 10 µM,Table 3a,100%
"O=C(O)CCCN(CCCNC(=O)Nc1ccc(Br)cc1)C1CCc2ccccc21 (centres unmarked) [Compound 173, 4-[[3-(4-Bromophenylureido)propyl](1-indanyl)amino]butanoic acid]",inhibition at 10 µM,Table 3a,100%
"O=C(O)CCCN(CC[C@H](NC(=O)Nc1ccc(Br)cc1)C(=O)NCc1ccccc1)C1CCCc2ccccc21 (stereo partly drawn) [Compound 287, 4-[[(3S)-3-(4-Bromophenylureido)-3-(benzylcarbamoyl)propyl](1,2,3,4-tetrahydro-1-naphthyl)amino]butanoic acid]",Chemotaxis Assay 10 μM (inhibition %),Table 3a,100%
CC(c1ccccc1)N(CCCNC(=S)Nc1ccc(Br)cc1)CCCC(=O)O (centres unmarked) [Compound 289],Chemotaxis Assay 10 μM (inhibition %),Table 3a,100%
O=C(O)CCCN(CCCNC(=S)Nc1cccc(Cl)c1)C1CCCc2ccccc21 (centres unmarked) [Compound 248],Chemotaxis Assay 10 μM (inhibition %),Table 3a,100%
O=C(NCCCN(CCc1ccc(Cl)cc1)Cc1cccnc1)Nc1ccccc1 [Compound 23],Chemotaxis Assay 10 μM (inhibition %),Table 3a,82%
O=C(O)CCCN(CCCNC(=S)Nc1ccc(F)cc1)C1CCCc2ccccc21 (centres unmarked) [Compound 257],Chemotaxis Assay 10 μM (inhibition %),Table 3a,100%
O=C(O)CCCN(CCCNC(=S)Nc1ccc(I)cc1)C1CCCc2ccccc21 (centres unmarked) [Compound 249],Chemotaxis Assay 10 μM (inhibition %),Table 3a,100%
CCN(CCCNC(=O)Nc1ccc(Cl)cc1)CCc1ccc(Cl)cc1 [Compound 6],Chemotaxis Assay 10 μM (inhibition %),Table 3a,100%
CC[N+](CC)(CCCNC(=S)Nc1ccccc1)CCc1ccc(Cl)cc1.[I-] [Compound 336],Chemotaxis Assay 10 μM (inhibition %),Table 3c,100%
CCN(CCCNC(=O)Nc1ccccc1OC)CCc1ccc(Cl)cc1 [Compound 9],Chemotaxis Assay 10 μM (inhibition %),Table 3a,100%
COC(=O)CCCN(CCCNC(=S)Nc1ccc(I)cc1)C1CCCc2ccccc21 (centres unmarked) [Compound 255],Chemotaxis Assay 10 μM (inhibition %),Table 3a,100%
"COC(=O)CCCN(CC[C@H](NC(=O)Nc1ccc(Br)cc1)C(=O)NC(C)C)C1CCCc2ccccc21 (stereo partly drawn) [Compound 282, methyl 4-[[(3S)-3-(4-bromophenylureido)-3-(isopropylcarbamoyl)propyl](1,2,3,4-tetrahydro-1-naphthyl)amino]butylate]",Chemotaxis Assay 10 μM (inhibition %),Table 3a,100%
"O=C(O)CCCN(CC(O)CNC(=O)Nc1ccc(Br)cc1)C1CCCc2ccccc21 (centres unmarked) [Compound 167, 4-[[3-(4-bromophenylureido)-2-hydroxypropyl](1,2,3,4-tetrahydro-1-naphthyl)amino]butanoic acid]",inhibition at 10 µM,Table 3a,100%
"CCN(CCc1ccc(Cl)cc1)CC(O)CNC(=O)Nc1ccccc1 (centres unmarked) [Compound 163, N-phenylcarbamoyl-N′-[2-(4-chlorophenyl)ethyl]-N′-ethyl 2-hydroxy-1,3-diaminopropane]",inhibition at 10 µM,Table 3a,96%
O=C(O)CCCN(CCCNC(=S)Nc1cccc(Br)c1)C1CCCc2ccccc21 (centres unmarked) [Compound 247],Chemotaxis Assay 10 μM (inhibition %),Table 3a,99%
COC(=O)CCCN(CCCNC(=S)Nc1ccc(Cl)c(Cl)c1)C1CCCc2ccccc21 (centres unmarked) [Compound 256],Chemotaxis Assay 10 μM (inhibition %),Table 3a,100%
O=C(NCCCN(CCc1ccccc1)CCc1ccc(Cl)cc1)Nc1ccccc1 [Compound 25],Chemotaxis Assay 10 μM (inhibition %),Table 3a,88%
CN(CCCNC(=O)Nc1ccccc1)CCc1ccc(Cl)cc1 [Compound 27],Chemotaxis Assay 10 μM (inhibition %),Table 3a,97%
COc1ccc(CN(CCCNC(=O)Nc2ccccc2)CCc2ccc(Cl)cc2)cc1 [Compound 18],Chemotaxis Assay 10 μM (inhibition %),Table 3a,58%
CCN(CCNC(=O)Nc1ccc([N+](=O)[O-])cc1)CCc1ccc(Cl)cc1 [Compound 4],Chemotaxis Assay 10 μM (inhibition %),Table 3a,59%
"CC(C)NC(=O)[C@H](CCN(CCCC(=O)O)C1CCCc2ccccc21)NC(=O)Nc1ccc(Br)cc1 (stereo partly drawn) [Compound 286, 4-[[(3S)-3-(4-Bromophenylureido)-3-(isopropylcarbamoyl)propyl](1,2,3,4-tetrahydro-1-naphthyl)amino]butanoic acid]",inhibition at 10 µM,Table 3a,100%
O=C(O)CCCN(CCCNC(=S)Nc1ccc(Cl)c(Cl)c1)C1CCCc2ccccc21 (centres unmarked) [Compound 251],Chemotaxis Assay 10 μM (inhibition %),Table 3a,100%
"CC(C)NC(=O)[C@H](CCN(CCCC(=O)O)C1CCCc2ccccc21)NC(=O)Nc1ccc(Br)cc1 (stereo partly drawn) [Compound 284, 4-[[(3S)-3-(4-Bromophenylureido)-3-(isopropylcarbamoyl)propyl](1,2,3,4-tetrahydro-1-naphthy1)amino]butanoic acid]",Chemotaxis Assay 10 μM (inhibition %),Table 3a,95%
COC(=O)CCCN(CC[C@H](NC(=O)Nc1ccc(Br)cc1)C(=O)OC(C)(C)C)C1CCCc2ccccc21 (some centres unmarked) [Compound 281],Chemotaxis Assay 10 μM (inhibition %),Table 3a,100%

# Source: patent US6875884B1, “Urea derivatives as inhibitors for CCR-3 receptor” (Kirin Beer Kabushiki Kaisha, priority 1999, dated 2005)
